Reference: patent publication US10202361B2, “Pyridazinones as herbicides” (E I DU PONT DE NEMOURS AND COMPANY, priority 2014, dated 2019)
Read-outs that look alike come from different tables or passages of the source.

Legend:
Test in all cases: Test C pre-/postemergence greenhouse herbicide test
Type in all cases: in vivo
[1] = system: barnyardgrass (Echinochloa crus-galli); conditions: Barnyardgrass, Postemergence
Method in brief: (§1)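 Visual ratings, 0 = no effect, 100 = complete control, vs untreated controls at 13–15 d. Pre: seeds in loam/sand. Post: 2–18 cm plants (1–4 leaf), peat/vermiculite mix. Surfactant-containing solvent formulation; greenhouse.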

[2] = system: blackgrass (Alopecurus myosuroides); conditions: Alopecurus myosuroides, Blackgrass, read-out: Plant response rating; for pest or weed control at 31 g/ha: 31 g ai/ha; for pest or weed control at 62 g/ha: 62 g ai/ha; for pest or weed control at 125 g/ha: 125 g ai/ha; for pest or weed control at 250 g/ha: 250 g ai/ha
Method in brief: as §1

[3] = system: crabgrass, Large (large crabgrass, Digitaria sanguinalis); conditions: Digitaria sanguinalis, Crabgrass, Large, read-out: Plant response rating; for pest or weed control at 31 g/ha: 31 g ai/ha; for pest or weed control at 62 g/ha: 62 g ai/ha; for pest or weed control at 125 g/ha: 125 g ai/ha; for pest or weed control at 250 g/ha: 250 g ai/ha
Method in brief: as §1

[4] = system: galium (catchweed bedstraw, Galium aparine); conditions: Galium, read-out: Plant response rating; for pest or weed control at 31 g/ha: 31 g ai/ha; for pest or weed control at 62 g/ha: 62 g ai/ha; for pest or weed control at 125 g/ha: 125 g ai/ha; for pest or weed control at 250 g/ha: 250 g ai/ha
Method in brief: as §1

kochia (Kochia scoparia) = system: kochia (Kochia scoparia)
Method in brief: as §1

[5] = system: oat, wild (wild oat, Avena fatua)
Method in brief: as §1

[6] = system: ragweed (common ragweed, Ambrosia elatior); conditions: Ambrosia artemisiifolia, Ragweed, read-out: Plant response rating; for pest or weed control at 31 g/ha: 31 g ai/ha; for pest or weed control at 62 g/ha: 62 g ai/ha; for pest or weed control at 125 g/ha: 125 g ai/ha; for pest or weed control at 250 g/ha: 250 g ai/ha
Method in brief: as §1

[7] = system: ryegrass, Italian (Italian ryegrass, Lolium multiflorum); conditions: Lolium multiflorum, Ryegrass, Italian, read-out: Plant response rating; for pest or weed control at 31 g/ha: 31 g ai/ha; for pest or weed control at 62 g/ha: 62 g ai/ha; for pest or weed control at 125 g/ha: 125 g ai/ha; for pest or weed control at 250 g/ha: 250 g ai/ha
Method in brief: as §1

[8] = system: waterhemp (common waterhemp, Amaranthus rudis); conditions: Waterhemp, Postemergence
Method in brief: as §1

[9] = system: wheat (winter wheat, Triticum aestivum); conditions: Triticum aestivum, Wheat, read-out: Plant response rating; for plant injury at 31 g/ha: 31 g ai/ha; for plant injury at 62 g/ha: 62 g ai/ha; for plant injury at 125 g/ha: 125 g ai/ha; for plant injury at 250 g/ha: 250 g ai/ha
Method in brief: as §1

[10] = system: morningglory (Ipomoea coccinea); conditions: Morningglory
Method in brief: as §1

Cc1cc(Oc2ccnc(C(F)(F)F)c2)nn(-c2ccc(C(F)(F)F)cc2)c1=O [Compound 6, 4-methyl-2-[4-(trifluoromethyl)phenyl]-6-[[2-(trifluoromethyl)-4-pyridinyl]oxy]-3(2H)-pyridazinone]
Plant response rating ([1]; 31 g ai/ha): 10 | Plant response rating ([1]; 62 g ai/ha): 10 | Plant response rating ([1]; 125 g ai/ha): 35 | Plant response rating ([1]; 250 g ai/ha): 65 | pest or weed control at 31 g/ha ([2]; post-emergence, Postemergence): 30% | pest or weed control at 62 g/ha ([2]; post-emergence, Postemergence): 35% | pest or weed control at 125 g/ha ([2]; post-emergence, Postemergence): 35% | pest or weed control at 250 g/ha ([2]; post-emergence, Postemergence): 50% | pest or weed control at 31 g/ha ([3]; post-emergence, Postemergence): 10% | pest or weed control at 62 g/ha ([3]; post-emergence, Postemergence): 20% | pest or weed control at 125 g/ha ([3]; post-emergence, Postemergence): 30% | pest or weed control at 250 g/ha ([3]; post-emergence, Postemergence): 35% | pest or weed control at 31 g/ha ([4]; post-emergence, Postemergence): 90% | pest or weed control at 62 g/ha ([4]; post-emergence, Postemergence): 90% | pest or weed control at 125 g/ha ([4]; post-emergence, Postemergence): 90% | pest or weed control at 250 g/ha ([4]; post-emergence, Postemergence): 90% | Plant response rating (kochia (Kochia scoparia); Postemergence, 31 g ai/ha): 90 | Plant response rating (kochia (Kochia scoparia); Postemergence, 62 g ai/ha): 90 | Plant response rating (kochia (Kochia scoparia); Postemergence, 125 g ai/ha): 90 | Plant response rating (kochia (Kochia scoparia); Postemergence, 250 g ai/ha): 95 | Plant response rating ([5]; Postemergence, 31 g ai/ha): 20 | Plant response rating ([5]; Postemergence, 62 g ai/ha): 25 | Plant response rating ([5]; Postemergence, 125 g ai/ha): 25 | Plant response rating ([5]; Postemergence, 250 g ai/ha): 50 | pest or weed control at 31 g/ha ([6]; post-emergence, Postemergence): 50% | pest or weed control at 62 g/ha ([6]; post-emergence, Postemergence): 55% | pest or weed control at 125 g/ha ([6]; post-emergence, Postemergence): 80% | pest or weed control at 250 g/ha ([6]; post-emergence, Postemergence): 80% | pest or weed control at 31 g/ha ([7]; post-emergence, Postemergence): 5% | pest or weed control at 62 g/ha ([7]; post-emergence, Postemergence): 10% | pest or weed control at 125 g/ha ([7]; post-emergence, Postemergence): 15% | pest or weed control at 250 g/ha ([7]; post-emergence, Postemergence): 35% | Plant response rating ([8]; 31 g ai/ha): 95 | Plant response rating ([8]; 62 g ai/ha): 98 | Plant response rating ([8]; 125 g ai/ha): 98 | Plant response rating ([8]; 250 g ai/ha): 98 | plant injury at 31 g/ha ([9]; post-emergence, Postemergence): 10% | plant injury at 62 g/ha ([9]; post-emergence, Postemergence): 10% | plant injury at 125 g/ha ([9]; post-emergence, Postemergence): 15% | plant injury at 250 g/ha ([9]; post-emergence, Postemergence): 25%

Cc1cc(=O)n(-c2ccc(F)cc2)nc1Oc1ccnc(C(F)(F)F)c1 [Compound 14, 2-(4-fluorophenyl)-5-methyl-6-[[2-(trifluoromethyl)-4-pyridinyl]oxy]-3 (2H)-pyridazinone]
pest or weed control at 31 g/ha ([2]; post-emergence, Postemergence): 5% | pest or weed control at 62 g/ha ([2]; post-emergence, Postemergence): 5% | pest or weed control at 125 g/ha ([2]; post-emergence, Postemergence): 5% | pest or weed control at 250 g/ha ([2]; post-emergence, Postemergence): 45% | pest or weed control at 62 g/ha ([2]; pre-emergence, Preemergence): 10% | pest or weed control at 125 g/ha ([2]; pre-emergence, Preemergence): 15% | pest or weed control at 250 g/ha ([2]; pre-emergence, Preemergence): 15% | pest or weed control at 31 g/ha ([3]; post-emergence, Postemergence): 10% | pest or weed control at 62 g/ha ([3]; post-emergence, Postemergence): 10% | pest or weed control at 125 g/ha ([3]; post-emergence, Postemergence): 15% | pest or weed control at 250 g/ha ([3]; post-emergence, Postemergence): 30% | pest or weed control at 31 g/ha ([3]; pre-emergence, Preemergence): 80% | pest or weed control at 62 g/ha ([3]; pre-emergence, Preemergence): 100% | pest or weed control at 125 g/ha ([3]; pre-emergence, Preemergence): 100% | pest or weed control at 250 g/ha ([3]; pre-emergence, Preemergence): 100% | pest or weed control at 31 g/ha ([4]; post-emergence, Postemergence): 50% | pest or weed control at 62 g/ha ([4]; post-emergence, Postemergence): 55% | pest or weed control at 125 g/ha ([4]; post-emergence, Postemergence): 55% | pest or weed control at 250 g/ha ([4]; post-emergence, Postemergence): 75% | pest or weed control at 31 g/ha ([4]; pre-emergence, Preemergence): 60% | pest or weed control at 62 g/ha ([4]; pre-emergence, Preemergence): 98% | pest or weed control at 125 g/ha ([4]; pre-emergence, Preemergence): 100% | pest or weed control at 250 g/ha ([4]; pre-emergence, Preemergence): 100% | Plant response rating (kochia (Kochia scoparia); Postemergence, 31 g ai/ha): 25 | Plant response rating (kochia (Kochia scoparia); Postemergence, 62 g ai/ha): 35 | Plant response rating (kochia (Kochia scoparia); Postemergence, 125 g ai/ha): 55 | Plant response rating (kochia (Kochia scoparia); Postemergence, 250 g ai/ha): 80 | Plant response rating (kochia (Kochia scoparia); Preemergence, 31 g ai/ha): 45 | Plant response rating (kochia (Kochia scoparia); Preemergence, 62 g ai/ha): 75 | Plant response rating (kochia (Kochia scoparia); Preemergence, 125 g ai/ha): 90 | Plant response rating (kochia (Kochia scoparia); Preemergence, 250 g ai/ha): 90 | Plant response rating ([10]; Postemergence, 31 g ai/ha): 75 | Plant response rating ([10]; Postemergence, 62 g ai/ha): 75 | Plant response rating ([10]; Postemergence, 125 g ai/ha): 80 | Plant response rating ([10]; Postemergence, 250 g ai/ha): 98 | Plant response rating ([10]; Preemergence, 31 g ai/ha): 35 | Plant response rating ([10]; Preemergence, 62 g ai/ha): 60 | Plant response rating ([10]; Preemergence, 125 g ai/ha): 65 | Plant response rating ([10]; Preemergence, 250 g ai/ha): 75 | Plant response rating ([5]; Postemergence, 31 g ai/ha): 20 | Plant response rating ([5]; Postemergence, 62 g ai/ha): 30 | Plant response rating ([5]; Postemergence, 125 g ai/ha): 30 | Plant response rating ([5]; Postemergence, 250 g ai/ha): 30 | Plant response rating ([5]; Preemergence, 31 g ai/ha): 0 | Plant response rating ([5]; Preemergence, 62 g ai/ha): 0 | Plant response rating ([5]; Preemergence, 125 g ai/ha): 65 | Plant response rating ([5]; Preemergence, 250 g ai/ha): 65 | pest or weed control at 31 g/ha ([6]; post-emergence, Postemergence): 50% | pest or weed control at 62 g/ha ([6]; post-emergence, Postemergence): 50% | pest or weed control at 125 g/ha ([6]; post-emergence, Postemergence): 60% | pest or weed control at 250 g/ha ([6]; post-emergence, Postemergence): 70% | pest or weed control at 31 g/ha ([6]; pre-emergence, Preemergence): 5% | pest or weed control at 62 g/ha ([6]; pre-emergence, Preemergence): 15% | pest or weed control at 125 g/ha ([6]; pre-emergence, Preemergence): 30% | pest or weed control at 250 g/ha ([6]; pre-emergence, Preemergence): 55% | pest or weed control at 31 g/ha ([7]; post-emergence, Postemergence): 5% | pest or weed control at 62 g/ha ([7]; post-emergence, Postemergence): 5% | pest or weed control at 125 g/ha ([7]; post-emergence, Postemergence): 10% | pest or weed control at 250 g/ha ([7]; post-emergence, Postemergence): 25% | pest or weed control at 31 g/ha ([7]; pre-emergence, Preemergence): 0% | pest or weed control at 62 g/ha ([7]; pre-emergence, Preemergence): 5% | pest or weed control at 125 g/ha ([7]; pre-emergence, Preemergence): 30% | pest or weed control at 250 g/ha ([7]; pre-emergence, Preemergence): 50% | plant injury at 31 g/ha ([9]; post-emergence, Postemergence): 5% | plant injury at 62 g/ha ([9]; post-emergence, Postemergence): 5% | plant injury at 125 g/ha ([9]; post-emergence, Postemergence): 5% | plant injury at 250 g/ha ([9]; post-emergence, Postemergence): 5% | plant injury at 62 g/ha ([9]; pre-emergence, Preemergence): 0% | plant injury at 125 g/ha ([9]; pre-emergence, Preemergence): 15% | plant injury at 250 g/ha ([9]; pre-emergence, Preemergence): 25%
